# Test results published in patent publication US5286729A, “Angiotensin II receptor blocking 2,3,6 substituted quinazolinones” (American Cyanamid Company, priority 1993, dated 1994).
# Values joined by “and” are separate entries in the source; they are usually repeats but may differ in a detail not shown here. Identical values can stand only once.
# Test system: ANGIOTENSIN II (AII) VASOPRESSOR RESPONSE
# Experiment: AII Challenge: % inhibition (angiotensin blockage) of angiotensin II vasopressor response in conscious SHR
# Assay type: in vivo, rat (Male Okamoto-Aoki SHR)
# Conditions: for Response After AII / Change / Control Before AII: individual rats
# From the text: By administering a compound of this invention to a rat, and then challenging with angiotensin II, a blockage of the vasopressor response is realized. The results of this test on representative compounds of this invention are shown in Table V. Conscious Male Okamoto-Aoki SHR, 16-20 weeks old, weighing approximately 330 g are purchased from Charles River Labs (Wilmington, MA). Conscious rats are restrained in a supine position with elastic tape. The area at the base of the tail is locally anesthetized by subcutaneous infiltration with 2% procaine. The central caudal artery and vein are isolated, and a cannula made of polyethylene (PE) 10-20 tubing (fused together by heat) is passed into the lower abdominal aorta and vena cava, respectively. The cannula is secured, heparinized (1,000 I.U./ml), sealed and the wound is closed. The animals are placed in plastic restraining cages in an upright position. The cannula is attached to a Statham P23Db pressure transducer, and pulsatile blood pressure is recorded to 10-15 minutes with a Gould Brush recorder. (Chan et al., (Drug Development Res., 18:75-94, 1989). Angiotensin II (human sequence, Sigma Chem. Co., St. Louis, MO) of 0.05 and 0.1 ug/kg i.v. is injected into all rats (predosing repsonse). Then a test compound, vehicle or a known angiotensin II antagonist is administered i.v., i.p. or orally to each set of rats. The two doses of angiotensin II are given to each rat again at 30, 60, 90, 120, 180, 240 and 300 minutes post dosing the compound or vehicle. The vasopressor response of angiotensin II is measured for the increase in systolic blood pressure in mmHg. The percentage of antagonism or blockade of the vasopressor response of angiotensin II by a compound is calculated using the vasopressor response (increase in systolic blood pressure) of angiotensin II of each rat predosing the compound as 100%. A compound is considered active if at 30 mg/kg i.v. it antagonized at least 50% of the response.
# [1] = 5 mg/kg IV, AII 0.05 mcg/kg IV, 30 min post dose
# [2] = 5 mg/kg IV, AII 0.05 mcg/kg IV, 30 min post dose, monohydrochloride
# [3] = 5 mg/kg IV, AII 0.05 mcg/kg IV, 60 min post dose
# [4] = 5 mg/kg IV, AII 0.05 mcg/kg IV, 60 min post dose, monohydrochloride
# [5] = 5 mg/kg IV, AII 0.05 mcg/kg IV, 90 min post dose
# [6] = 5 mg/kg IV, AII 0.05 mcg/kg IV, 90 min post dose, monohydrochloride
# [7] = 5 mg/kg IV, AII 0.05 mcg/kg IV, 120 min post dose
# [8] = 5 mg/kg IV, AII 0.05 mcg/kg IV, 120 min post dose, monohydrochloride
# [9] = 5 mg/kg IV, AII 0.05 mcg/kg IV, 180 min post dose
# [10] = 5 mg/kg IV, AII 0.05 mcg/kg IV, 180 min post dose, monohydrochloride
# [11] = 5 mg/kg IV, AII 0.1 mcg/kg IV, 30 min post dose
# [12] = 5 mg/kg IV, AII 0.1 mcg/kg IV, 30 min post dose, monohydrochloride
# [13] = 5 mg/kg IV, AII 0.1 mcg/kg IV, 60 min post dose
# [14] = 5 mg/kg IV, AII 0.1 mcg/kg IV, 60 min post dose, monohydrochloride
# [15] = 5 mg/kg IV, AII 0.1 mcg/kg IV, 90 min post dose
# [16] = 5 mg/kg IV, AII 0.1 mcg/kg IV, 90 min post dose, monohydrochloride
# [17] = 5 mg/kg IV, AII 0.1 mcg/kg IV, 120 min post dose
# [18] = 5 mg/kg IV, AII 0.1 mcg/kg IV, 120 min post dose, monohydrochloride
# [19] = 5 mg/kg IV, AII 0.1 mcg/kg IV, 180 min post dose
# [20] = 5 mg/kg IV, AII 0.1 mcg/kg IV, 180 min post dose, monohydrochloride
# [21] = 10 mg/kg P.O., AII 0.05 mcg/kg IV, 30 min post dose
# [22] = 10 mg/kg P.O., AII 0.05 mcg/kg IV, 30 min post dose, monohydrochloride
# [23] = 10 mg/kg P.O., AII 0.05 mcg/kg IV, 60 min post dose
# [24] = 10 mg/kg P.O., AII 0.05 mcg/kg IV, 60 min post dose, monohydrochloride
# [25] = 10 mg/kg P.O., AII 0.05 mcg/kg IV, 90 min post dose
# [26] = 10 mg/kg P.O., AII 0.05 mcg/kg IV, 90 min post dose, monohydrochloride
# [27] = 10 mg/kg P.O., AII 0.05 mcg/kg IV, 120 min post dose
# [28] = 10 mg/kg P.O., AII 0.05 mcg/kg IV, 120 min post dose, monohydrochloride
# [29] = 10 mg/kg P.O., AII 0.05 mcg/kg IV, 180 min post dose
# [30] = 10 mg/kg P.O., AII 0.05 mcg/kg IV, 180 min post dose, monohydrochloride
# [31] = 10 mg/kg P.O., AII 0.1 mcg/kg IV, 30 min post dose
# [32] = 10 mg/kg P.O., AII 0.1 mcg/kg IV, 30 min post dose, monohydrochloride
# [33] = 10 mg/kg P.O., AII 0.1 mcg/kg IV, 60 min post dose
# [34] = 10 mg/kg P.O., AII 0.1 mcg/kg IV, 90 min post dose
# [35] = 10 mg/kg P.O., AII 0.1 mcg/kg IV, 120 min post dose
# [36] = 10 mg/kg P.O., AII 0.1 mcg/kg IV, 120 min post dose, monohydrochloride
# [37] = 10 mg/kg P.O., AII 0.1 mcg/kg IV, 180 min post dose
# [38] = 10 mg/kg P.O., AII 0.1 mcg/kg IV, 180 min post dose, monohydrochloride
smiles,measurement,setting,value
"CCCCc1nc2ccc(COc3ccccn3)cc2c(=O)n1Cc1ccc(-c2ccccc2-c2nnn[nH]2)cc1.Cl [Example 12, 2-Butyl-6-[(2-pyridinyloxy)methyl]-3-[[2'-(1H-tetrazol-5-yl)[1,1'-biphenyl]-4-yl]methyl]-4(3H)-quinazolinone monohydrochloride]",% Inhibition,[1],62%
same,Average Change,[1],12.5 mmHg
same,Response After AII,[1],195 mmHg
same,Change,[2],10 mmHg and 15 mmHg
same,Control Before AII,[2],185 mmHg and 180 mmHg
same,% Inhibition,[3],92%
same,Average Change,[3],2.5 mmHg
same,Control Before AII,[3],175 mmHg
same,Response After AII,[3],180 mmHg
same,Change,[4],0 mmHg and 5 mmHg
same,Response After AII,[4],175 mmHg
same,% Inhibition,[5],69%
same,Average Change,[5],10 mmHg
same,Change,[5],10 mmHg
same,Response After AII,[5],170 mmHg
same,Control Before AII,[6],160 mmHg and 165 mmHg
same,Response After AII,[6],175 mmHg
same,% Inhibition,[7],77%
same,Average Change,[7],7.5 mmHg
same,Control Before AII,[7],165 mmHg
same,Response After AII,[7],170 mmHg
same,Change,[8],10 mmHg and 5 mmHg
same,Response After AII,[8],175 mmHg
same,% Inhibition,[9],66%
same,Average Change,[9],11 mmHg
same,Change,[10],7 mmHg and 15 mmHg
same,Control Before AII,[10],165 mmHg and 155 mmHg
same,Response After AII,[10],172 mmHg and 170 mmHg
same,% Inhibition,[11],65%
same,Average Change,[11],15 mmHg
same,Control Before AII,[11],185 mmHg
same,Response After AII,[11],195 mmHg
same,Change,[12],10 mmHg and 20 mmHg
same,Control Before AII,[12],175 mmHg
same,% Inhibition,[13],71%
same,Average Change,[13],12.5 mmHg
same,Response After AII,[13],185 mmHg
same,Change,[14],15 mmHg and 10 mmHg
same,Control Before AII,[14],170 mmHg and 175 mmHg
same,% Inhibition,[15],76%
same,Average Change,[15],10 mmHg
same,Change,[15],10 mmHg
same,Control Before AII,[16],160 mmHg and 170 mmHg
same,Response After AII,[16],170 mmHg and 180 mmHg
same,% Inhibition,[17],65%
same,Average Change,[17],15 mmHg
same,Control Before AII,[17],165 mmHg
same,Change,[18],20 mmHg and 10 mmHg
same,Response After AII,[18],185 mmHg and 175 mmHg
same,% Inhibition,[19],51%
same,Average Change,[19],21 mmHg
same,Control Before AII,[19],160 mmHg
same,Change,[20],20 mmHg and 22 mmHg
same,Response After AII,[20],180 mmHg and 182 mmHg
same,% Inhibition,[21],56%
same,Average Change,[21],17.5 mmHg
same,Control Before AII,[21],185 mmHg
same,Response After AII,[21],210 mmHg
same,Change,[22],25 mmHg and 10 mmHg
same,Control Before AII,[22],200 mmHg
same,% Inhibition,[23],44%
same,Average Change,[23],22.5 mmHg
same,Control Before AII,[23],185 mmHg
same,Response After AII,[23],220 mmHg
same,Change,[24],25 mmHg and 20 mmHg
same,Control Before AII,[24],195 mmHg
same,Response After AII,[24],205 mmHg
same,% Inhibition,[25],59%
same,Average Change,[25],16.5 mmHg
same,Control Before AII,[25],195 mmHg
same,Change,[26],30 mmHg and 3 mmHg
same,Control Before AII,[26],190 mmHg
same,Response After AII,[26],220 mmHg and 198 mmHg
same,% Inhibition,[27],69%
same,Average Change,[27],12.5 mmHg
same,Control Before AII,[27],210 mmHg
same,Response After AII,[27],230 mmHg
same,Change,[28],20 mmHg and 5 mmHg
same,Response After AII,[28],215 mmHg
same,% Inhibition,[29],50%
same,Average Change,[29],20 mmHg
same,Control Before AII,[29],185 mmHg
same,Change,[30],25 mmHg and 15 mmHg
same,Response After AII,[30],210 mmHg and 200 mmHg
same,% Inhibition,[31],34%
same,Average Change,[31],27.5 mmHg
same,Response After AII,[31],220 mmHg
same,Change,[32],35 mmHg and 20 mmHg
same,Control Before AII,[32],185 mmHg and 200 mmHg
same,% Inhibition,[33],16%
same,Average Change,[33],35 mmHg
same,Change,[33],35 mmHg
same,Control Before AII,[33],185 mmHg
same,Response After AII,[33],220 mmHg
same,% Inhibition,[34],28%
same,Average Change,[34],30 mmHg
same,Change,[34],30 mmHg
same,Control Before AII,[34],190 mmHg
same,Response After AII,[34],220 mmHg
same,% Inhibition,[35],52%
same,Average Change,[35],20 mmHg
same,Control Before AII,[35],205 mmHg
same,Response After AII,[35],235 mmHg
same,Change,[36],30 mmHg and 10 mmHg
same,Response After AII,[36],215 mmHg
same,% Inhibition,[37],40%
same,Average Change,[37],25 mmHg
same,Response After AII,[37],210 mmHg
same,Change,[38],35 mmHg and 15 mmHg
same,Control Before AII,[38],190 mmHg and 195 mmHg
same,Response After AII,[38],225 mmHg
